Results published in ChEMBL document CHEMBL4392880, “Bioactive Diterpenoids from the Stems of Euphorbia antiquorum” (J Nat Prod, 2019).

Assays:
BV-2 [1] = assay: Antiinflammatory activity in mouse BV2 cells assessed as inhibition of LPS-induced nitric oxide production incubated for 24 hrs by Griess assay; type: functional, cell-based; details: BV-2, 24 h
BV-2 [2] = assay: Cytotoxicity against mouse BV2 cells assessed as effect on cell survival by MTT assay; type: cell-based

SMILES	IC50 (BV-2 [1]) [µM]	Activity (BV-2 [2])
CSC(=N)N.O=S(=O)(O)O	3.1	Non-Toxic
CC1(C)CCC[C@]2(C)[C@@H]1CC[C@@]13O[C@@H]1C1=C(CO)C(=O)OC1=C[C@@H]23	9.1	Non-Toxic
C/C=C(\C)C(=O)O[C@H]1[C@H]2[C@@H]([C@@H](OC(C)=O)[C@@H](C)C(=O)[C@@]34C[C@H](C)[C@H](OC(=O)c5ccccc5)[C@]3(/C=C(\C)[C@H]1O)O4)C2(C)C	14.5	Non-Toxic
CC1(C)C(=O)CC[C@]2(C)[C@@H]1CC[C@@]13C[C@H](CC[C@H]12)[C@@](O)(CO)C3	> 100	Non-Toxic
C=C1C[C@]23CC[C@H]1C[C@H]2[C@]1(C)CCC(=O)[C@@](C)(CO)[C@H]1CC3	25.4	Non-Toxic
C/C=C(\C)C(=O)O[C@H]1[C@H]2[C@@H]([C@@H](OC(C)=O)[C@@H](C)C(=O)[C@@]34C[C@H](C)[C@H](OC(=O)/C(C)=C/C)[C@]3(/C=C(\C)[C@H]1O)O4)C2(C)C	26.9	Non-Toxic
CC1=C2[C@H]3O[C@]34CC[C@@H]3C(C)(C)CCC[C@@]3(C)[C@@H]4C[C@H]2OC1=O	15	Non-Toxic
C/C=C(\C)C(=O)O[C@H]1[C@H]2[C@@H]([C@@H](OC(C)=O)[C@@H](C)C(=O)[C@@]34C[C@H](C)[C@H](OC(C)=O)[C@]3(/C=C(\C)[C@H]1O)O4)C2(C)C	> 100	Non-Toxic
CC(=O)O[C@H]1CCC(C)(C)[C@H]2CC[C@@]34O[C@@H]3C3=C(C)C(=O)O[C@@H]3C[C@H]4[C@]12C	24.1	Non-Toxic
C=C[C@]1(C)C=C2CC[C@H]3[C@](C)(C=O)[C@@H](O)CC[C@]3(C)[C@H]2CC1 [SANDARACOPIMARADIENOLAL]	> 10	Non-Toxic

Now from value to molecule, other results behind:

IC50 (BV-2 [1]) [µM]	SMILES	Activity (BV-2 [2])
42.9	CCCC(=O)OC[C@]1(C)C(=O)CC[C@@]2(C)[C@@H]3CC[C@@H]4C[C@@]3(CC[C@@H]21)C[C@@]4(O)CO	Non-Toxic
> 100	C=C1C[C@@]23CC[C@H]4[C@@](C)(CCC(=O)[C@@]4(C)COC(C)=O)[C@@H]2C[C@@H]1[C@@H](O)C3=O	Non-Toxic
44.3	C=C1C[C@@]23CC[C@H]4[C@@](C)(CCC(=O)[C@@]4(C)COC(=O)/C(C)=C/C)[C@@H]2C[C@@H]1[C@@H](O)C3=O	Non-Toxic
> 100	C=C1C[C@@]23CC[C@H]4[C@@](C)(CCC(=O)[C@@]4(C)COC(=O)CCC)[C@@H]2C[C@@H]1[C@@H](O)C3=O	Non-Toxic
76.6	CCC(=O)OC[C@]1(C)C(=O)CC[C@@]2(C)[C@@H]3C[C@@H]4CC[C@@]3(CC[C@@H]21)C[C@@]4(O)CO	Non-Toxic
77	C=C1C[C@@]23CC[C@H]4[C@@](C)(CCC(=O)[C@@]4(C)COC(C)=O)[C@@H]2C[C@@H]1CC3=O	Non-Toxic
28.8	C=C1C[C@@]23CC[C@H]4[C@@](C)(CCC(=O)[C@@]4(C)COC(=O)/C(C)=C/C)[C@@H]2C[C@@H]1CC3=O	Non-Toxic
> 60	C=C1C[C@@]23CC[C@H]4[C@@](C)(CCC(=O)[C@@]4(C)COC(=O)CCC)[C@@H]2C[C@@H]1CC3=O	Non-Toxic
42.4	CCCC(=O)OC[C@]1(C)C(=O)CC[C@@]2(C)[C@@H]3C[C@@H]4CC[C@@]3(CC[C@@H]21)C[C@@]4(O)CO	Non-Toxic
